From paper PMC6145916, “Interaction of mitochondrial fission factor with dynamin related protein 1 governs physiological mitochondrial function in vivo” (Scientific Reports, 2018)

Key:
SH-SY5Y cells = assay: Mitochondrial ROS (MitoSox Red) in GFP positive SH-SY5Y cells expressing P259 or alanine-substituted P259; format: cell-based, human; conditions: P259 sequence alone (no TAT carrier) expressed from vector, two days, relative to empty GFP vector; n = 3, with 3 replicates
Procedure: (§1) Represented Western blot is cropped from a full blot shown in the Expanded Western Blots section of the Supplementary Information. […] Hoechst 33342 is shown in blue and Tom20 in green (n = 3, 10 images each). Below, quantification of the form factor (degree of branching) and major axis length (length of mitochondria). At least 6,000 mitochondrial fragments were measured for each condition. Mitochondrial reactive oxygen species (ROS) production (MitoSox Red) (c) and mitochondrial membrane potential (TMRM) (d) after overnight treatment with indicated concentrations of peptide or FCCP. Data are from 3 independent experiments per condition normalized to the average no peptide value. (e) Relative mitochondrial ROS (MitoSox Red) signal in GFP positive cells expressing full-length or alanine-substituted P259 at indicated amino acids after two days of transfection. Values are normalized to a GFP empty vector (n = 3, with 3 replicates). […] Data are mean ± s.e.
Using mitochondrial ROS as a phenotypic output, we determined which residues of P259 were necessary for its function.
DMI6000B inverted microscope. All mitochondria were imaged with a GFP fi lter. Then, green […]
filter every 30 seconds for 5 minutes. […]
GFP filter (Keyence). […] The GFP and MitoSox signals were measured in a ring around each nucleus. Average MitoSox levels were quantified in […]

[1] = test system: neuroblastoma SH-SY5Y cells; assay: Mitochondrial morphology (Tom20 immunofluorescence), SH-SY5Y; format: cell-based, human; conditions: 4 µM TAT-P259 or 10 µM Mdivi-1, 30-minute treatment; n = 3, 10 images each
Procedure: as §1, with “s.e. […]” for “s.e.”
Cells were fixed onto Permanox plastic slides with 4% paraformaldehyde in PBS for 10 minutes at room temperature. Cells were permeabilized in 0.1% Triton X-100 and 1% normal goat serum (blocking buffer) for one hour at room temperature. Permeabilized cells were incubated overnight with primary anti-Tom20 antibody (Santa Cruze Biotech, sc-11415, 1:250 dilution) in a humidified chamber. Slides were subsequently incubated with FITC-conjugated goat anti-rabbit IgG for two hours at room temperature in a light-shielding humidified chamber. Cells were washed with blocking buffer and stained with Hoechst 33342 (Invitrogen, OR, USA, […]). Coverslips were mounted with a Slowfade antifade solution (Invitrogen, OR, USA). Images were acquired using an LSM 700 confocal laser-s canning microsc ope equipped with a Plan Apochromat 63x/1.4 NA oil-immersion objective (Zeiss).
Mitochondrial morphology analysis
High-throughput image analysis of mitochondrial morphology was performed using MATLAB with the Image Processing toolkit. Background illumination, obtained by morphological opening of the image, was subtracted from the original image. The image was then passed through a top - hat transformation to highlight objects from the background followed by a pixel-wis e adaptive low-pas s Wiener filter to remove noise. A 90th percentile threshold was used to convert the image to a binary image. Erroneously large and small objects were removed from the image and morphological features were extracted from the binary objects. Major axis length is defined as th e length of the longest line that can be drawn through a binary object while the minor axis length is defined as the length of the shortest line. The aspect ratio is defined by the major axis length divided by the minor axis length. […]

Drp1 = conditions: cited from earlier work
Source text: However, Mdivi-1 cannot distinguish between Drp1′s physiological and pathological activities. […] Strikingly, while inhibiting the interaction between Drp1 and Fis1 slo ...

[2] = biological target: T1, recombinant human Drp1 (dynamin related protein 1) (human, UniProt O00429 1-736); assay: graphene surface with transistors measuring electrical conductance; conditions: both partners purified
T1 construct: dynamin related protein 1 (Drp1), human, recombinant; details may stand in the Supplementary Methods; also called recombinant Drp1
T1 sequence (O00429 whole entry): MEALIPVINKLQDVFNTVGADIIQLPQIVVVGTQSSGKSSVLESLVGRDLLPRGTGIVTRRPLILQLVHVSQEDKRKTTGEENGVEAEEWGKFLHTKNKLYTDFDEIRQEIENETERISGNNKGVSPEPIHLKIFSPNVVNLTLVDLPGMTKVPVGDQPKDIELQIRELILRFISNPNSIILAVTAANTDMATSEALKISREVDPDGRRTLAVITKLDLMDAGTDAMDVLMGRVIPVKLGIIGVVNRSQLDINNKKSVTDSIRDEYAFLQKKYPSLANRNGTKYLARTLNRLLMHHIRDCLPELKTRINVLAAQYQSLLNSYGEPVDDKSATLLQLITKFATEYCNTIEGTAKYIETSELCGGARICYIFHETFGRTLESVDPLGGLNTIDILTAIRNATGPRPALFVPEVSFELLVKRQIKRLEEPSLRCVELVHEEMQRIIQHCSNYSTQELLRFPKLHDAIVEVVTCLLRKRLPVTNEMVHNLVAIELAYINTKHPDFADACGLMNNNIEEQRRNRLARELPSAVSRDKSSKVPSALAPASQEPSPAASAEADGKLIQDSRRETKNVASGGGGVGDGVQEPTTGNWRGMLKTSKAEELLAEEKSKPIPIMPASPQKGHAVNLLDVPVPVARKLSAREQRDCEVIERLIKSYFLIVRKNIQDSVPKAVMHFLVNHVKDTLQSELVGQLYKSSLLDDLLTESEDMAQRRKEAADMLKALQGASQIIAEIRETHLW

IIQLPEIVVV [P259 peptide]
mitochondrial ROS levels (MitoSox) in GFP-positive cells (SH-SY5Y cells): doubled mitochondrial ROS levels

COc1cc(-n2c(=S)[nH]c3ccccc3c2=O)c(Cl)cc1Cl [Mdivi-1, reference compound]
mitochondrial morphology [1]: These effects were similar to treatment with Mdivi-1
GTPase activity of Drp1 (Drp1): inhibitor of the GTPase activity of Drp1

B1: P259 (peptide, UniProt O00429 22-31, looked up)
peptide: IIQLPEIVVV
notes: dynamin related protein 1 (Drp1), residues 22-31, with glutamine 27 replaced by glutamate as found in Mff; The text introduces the TAT carrier only for the cell experiments; whether the in vitro peptide carried it may be told in the Supplementary Methods; also called peptide P259
Kd [2]: 12 nM
